Experimental data taken from patent US20080113041A1, “CALCIUM SUPPLEMENTATION TO REDUCE PROSTATE CANCER RISK” (Trustees of Dartmouth College, priority 2001, published 2008).
Where two headings read alike, the source gives them in different places.

Assays:
[1] = test system: prostate cancer; details: for men diagnosed with prostate cancer: 345 men randomized to calcium; for adjusted odds ratio for prostate cancer: calcium vs placebo, 1200 mg elemental calcium (as carbonate); for toxicity: four years of treatment, 3000 mg calcium carbonate
Method: To investigate this issue in a randomized study, we investigated the association between prostate cancer risk and treatment assignment in a large, double blind chemoprevention trial of calcium carbonate supplementation for the prevention of large bowel adenomas. Treatment was for four years in two randomized groups: placebo or 1200 mg elemental calcium (as carbonate).
The Calcium Polyp Prevention Study from which the data for this study were obtained involved six clinical centers: the Cleveland Clinic Foundation, Dartmouth-Hitchcock Medical Center, the University of Southern California/Southern California Permanente Medical Group, the University of Iowa, University of Minnesota, and the University of North Carolina Dartmouth was the coordinating center. Human subjects committees at each center approved the study protocol; an independent safety and data monitoring committee reviewed the study semi-annually.
Eligible patients were less than eighty years old, in good health, and without a history of familial polyposis, invasive large bowel cancer, malabsorption syndromes, or any condition which might be worsened by supplemental calcium. We aimed to randomize 860 subjects to have 80% power to detect a 25% reduction in […].
We reviewed data from 2,918 apparently eligible patients. […] We assigned these subjects to calcium or placebo using computer-generated random numbers, blocking by study center. […] Study tablets contained 3000 mg of calcium carbonate (1200 mg of elemental calcium); or, an identical-appearing cellulose/sucrose placebo. The trial was double-blind; neither subjects nor study staff were told the subjects' treatment assignments.
At enrollment and at the time of each of two follow-up colonoscopies, we obtained venous blood specimens in mineral-free tubes. Serum was initially stored at −20° C. or lower, pending shipment to Dartmouth for storage at −70° C. until analysis. At enrollment and the end of the study, we also assessed subjects' diet with a validated food frequency questionnaire (Block et al., Am. J. Epidemiol., 124:453-69, 1986). Every six months, we sent patients questionnaires regarding adherence to study agents; use of medications, over-the-counter drugs and nutritional supplements; and the occurrence of symptoms, illnesses, and hospitalizations. Recruitment into the study began in November 1988 and ended in April 1992. Follow-up ended in December 1996.
To summarize the association between prostate cancer and treatment assignment, we used Kaplan-Meier survival curves as well as odds ratios (OR's) and 95% CI's, computed using logistic regression with adjustment for age, clinical center, and baseline dietary calcium. OR's were calculated for the period from randomization to end of treatment and, to accommodate possible delays in cancer detection and/or latent treatment effects, for the period from randomization to end of treatment plus 12 months (i.e., five years).

[2] = test system: colorectal adenomas; details: cited from earlier work
[3] = test system: prostate cancer; details: adjuvant arm after prostatic and pelvic radiation therapy; T3, N0, or any T, N1, M0 disease; 71% on observation arm, p=0.52; cited from earlier work
[4] = 913 subjects with at least one study examination, calcium carbonate 3 gm daily vs placebo

## O=C([O-])[O-].[Ca+2] [calcium, calcium carbonate]
[1]; after five years of follow-up
  men diagnosed with prostate cancer: 11 men
[1]; after four years of follow-up
  men diagnosed with prostate cancer: 8 men
[1]; assignment to calcium supplementation vs placebo
  risk of prostate cancer: statistically significant reduction
[1]; by year three of follow-up
  incidence of prostate cancer, Kaplan-Meier curves versus placebo: lower incidence
[1]; five-year follow-up (end of treatment plus 12 months)
  adjusted odds ratio for prostate cancer: 0.43
[1]
  toxicity: without toxicity
[1]; listed as calcium carbonate
  toxicity: minimal
[1]; four-year treatment period, adjusted for age, clinical center, baseline dietary calcium
  adjusted odds ratio for prostate cancer: 0.54
[2]; [4]
  adjusted ratio of the average numbers of adenomas: 0.76
  adjusted risk ratio of any adenoma recurrence: 0.85
[2]; calcium carbonate 3 gm daily
  toxicity associated with supplementation: No toxicity

## CC(C)C[C@H](NC(=O)[C@@H](COC(C)(C)C)NC(=O)[C@H](Cc1ccc(O)cc1)NC(=O)[C@H](CO)NC(=O)[C@H](Cc1c[nH]c2ccccc12)NC(=O)[C@H](Cc1cnc[nH]1)NC(=O)[C@@H]1CCC(=O)N1)C(=O)N[C@@H](CCCNC(=N)N)C(=O)N1CCC[C@H]1C(=O)NNC(N)=O [goserelin]
[3]
  actuarial overall 5-year survival rate: 75%
